Common to all, as to format: cell-based
The target of experiment [1] is T1, Oxysterols receptor LXR-beta (Homo sapiens, UniProt P55055).
T1 sequence (P55055 whole entry): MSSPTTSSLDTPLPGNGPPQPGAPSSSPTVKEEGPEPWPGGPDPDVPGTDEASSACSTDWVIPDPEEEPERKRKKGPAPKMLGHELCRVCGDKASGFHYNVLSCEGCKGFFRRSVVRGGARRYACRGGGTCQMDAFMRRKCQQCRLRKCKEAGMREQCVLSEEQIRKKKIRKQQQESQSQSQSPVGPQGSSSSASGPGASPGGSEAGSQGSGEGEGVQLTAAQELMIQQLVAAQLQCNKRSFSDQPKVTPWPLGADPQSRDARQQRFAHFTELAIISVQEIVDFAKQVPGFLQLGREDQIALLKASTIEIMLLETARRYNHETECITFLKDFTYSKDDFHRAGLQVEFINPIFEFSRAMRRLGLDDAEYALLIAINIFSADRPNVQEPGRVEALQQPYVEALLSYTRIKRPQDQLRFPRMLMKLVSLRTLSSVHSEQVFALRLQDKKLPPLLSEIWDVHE
The experiment can be described thus: Agonist activity at full length human LXRbeta expressed in HEK293 cells harboring LXRE-Luc promoter by luciferase reporter gene assay. (In a reporter assay the amount or activity of a reporter protein is the signal.)

For experiment [2], the target named is T2, Oxysterols receptor LXR-alpha (Homo sapiens, UniProt Q13133).
T2 sequence (Q13133 whole entry): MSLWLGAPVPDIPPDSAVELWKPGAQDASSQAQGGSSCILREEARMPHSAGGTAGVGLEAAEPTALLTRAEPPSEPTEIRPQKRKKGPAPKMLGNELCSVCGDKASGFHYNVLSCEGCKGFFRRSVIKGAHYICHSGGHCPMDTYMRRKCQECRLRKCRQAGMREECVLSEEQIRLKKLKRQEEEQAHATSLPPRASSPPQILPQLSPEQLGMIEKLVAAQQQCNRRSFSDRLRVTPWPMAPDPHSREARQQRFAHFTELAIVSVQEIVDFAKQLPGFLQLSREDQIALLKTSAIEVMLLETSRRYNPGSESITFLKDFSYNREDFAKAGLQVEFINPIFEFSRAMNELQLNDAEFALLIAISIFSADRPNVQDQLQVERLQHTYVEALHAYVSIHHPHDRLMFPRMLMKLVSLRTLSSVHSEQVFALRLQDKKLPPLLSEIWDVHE
As to the kind of experiment: Agonist activity at full length human LXRalpha expressed in HEK293 cells harboring LXRE-Luc promoter by luciferase reporter gene assay.

The next experiment is filed under the species Homo sapiens. As to the kind of experiment: Selectivity ratio of EC50 for full length human LXRalpha expressed in HEK293 cells to EC50 for full length human LXRbeta expressed in HEK293 cells.
The target of experiment [3] is T3, Oxysterols receptor LXR-beta (Homo sapiens) (UniProt P55055).
T3 sequence (whole entry): T1 sequence (P55055 whole entry)
As to the kind of experiment: Agonist activity at full length human LXRbeta expressed in HEK293 cells harboring LXRE-Luc promoter at 10 uM by luciferase reporter gene assay relative to T0901317.

The target in experiment [4] is T4, Oxysterols receptor LXR-alpha (Homo sapiens) (UniProt Q13133).
T4 sequence (whole entry): T2 sequence (Q13133 whole entry)
As to the kind of experiment: Agonist activity at full length human LXRalpha expressed in HEK293 cells harboring LXRE-Luc promoter at 10 uM by luciferase reporter gene assay relative to T0901317.

Active and inactive are the calls of the source. The rule behind the calls is not given here.

Broadly, the EC50 is the concentration that produces a half-maximal response. `CC(=O)n1nc(-c2ccccc2)nc1-c1ccccc1`: the EC50 in experiment [1] worked out at 232 nM; in experiment [2], 396 nM.

For the compound `c1ccc(Cc2nc(-c3ccccc3)n[nH]2)cc1`, the EC50 came out at 6150 nM in experiment [1] and 2200 nM in experiment [2]. For the same compound, the Ratio EC50 in the experiment filed under Homo sapiens turned out to be 0.36.

As a reminder, the Emax is the size of the effect at its maximum, as opposed to the concentration needed. For `Brc1ccc(-c2n[nH]c(-c3ccccc3)n2)cc1`, the Emax in experiment [3] stood at 62%; in experiment [4], 55%. In addition, the EC50 in experiment [1] came to 68 nM; in experiment [2], 164 nM. Also, in the experiment filed under Homo sapiens, the Ratio EC50 was found to be 2.41.

In the case of `Cc1ccc(S(=O)(=O)n2nc(-c3ccccc3)nc2-c2ccccc2)cc1`, the Emax in experiment [3] is 81%; in experiment [4], 75%. Also, the figures for the half-maximal effective concentration (EC50) in experiment [1] and in experiment [2] were 259 nM and 1700 nM, respectively. In the experiment filed under Homo sapiens, the Ratio EC50 amounted to 6.58.

Regarding `CCn1nc(-c2ccccc2)nc1-c1ccccc1`, the Emax entry in experiment [3] and in experiment [4] was “inactive” each time.

`Clc1ccccc1-c1n[nH]c(Cc2ccccc2)n1`: the Emax turned out to be 61% in experiment [3] and 46% in experiment [4]. Further, the results for the EC50 in experiment [1] and in experiment [2] were 966 nM and 570 nM, respectively. Further, in the experiment filed under Homo sapiens, the Ratio EC50 is 0.59.

With `COc1cccc(-c2nc(-c3ccccc3)n(C(C)=O)n2)c1`, the maximal response (Emax) in experiment [3] came out at 78%; in experiment [4], 62%. Besides, the EC50 in experiment [1] turned out to be 109 nM; in experiment [2] it was 115 nM. Moreover, in the experiment filed under Homo sapiens, the Ratio EC50 turned out to be 1.06.

Consider `Clc1ccc(-c2n[nH]c(-c3ccccc3)n2)cc1`, for which the results for the Emax in experiment [3] and in experiment [4] were 60% and 51%, respectively. Besides, the EC50 in experiment [1] amounted to 245 nM; in experiment [2], 309 nM. The Ratio EC50 in the experiment filed under Homo sapiens turned out to be 1.26.

Consider `Cc1ccc(-c2n[nH]c(-c3ccccc3)n2)cc1`, for which the Emax in experiment [3] came to 73%; in experiment [4], 62%. For the same compound, the concentration for a half-maximal effect (EC50) in experiment [1] came out at 85 nM; in experiment [2], 77 nM. For the same compound, the Ratio EC50 in the experiment listed under Homo sapiens stood at 0.91.

For `Clc1ccccc1-c1n[nH]c(-c2ccccc2)n1`, the EC50 in experiment [1] was 640 nM; in experiment [2] it was 526 nM.

For the compound `CC(=O)n1nc(-c2ccc(C)cc2)nc1-c1ccccc1`, the maximal response (Emax) was determined as 62% in experiment [3] and 53% in experiment [4]. Further, the EC50 in experiment [1] worked out at 351 nM; in experiment [2], 228 nM. Also, the Ratio EC50 in the experiment filed under Homo sapiens is 0.65.

Turning to `Cn1nc(-c2ccc(Cl)cc2)nc1-c1ccccc1`, the Emax in experiment [3] is 83%; in experiment [4], 77%. Further, the EC50 is 1990 nM in experiment [1] and 1190 nM in experiment [2]. In addition, in the experiment filed under Homo sapiens, the Ratio EC50 worked out at 0.6.

Turning to `Clc1ccc(-c2n[nH]c(Cc3ccccc3)n2)cc1`, the maximal effect (Emax) in experiment [3] amounted to 73%. Further, the EC50 in experiment [1] was determined as 2570 nM. Besides, the Emax result in experiment [4] was “inactive”.

Regarding `CCCCn1nc(-c2ccccc2)nc1-c1ccccc1`, the Emax result in experiment [3] was “inactive”. For the same compound, the Emax in experiment [4] stood at 65%. This compound came in with a half-maximal effective concentration (EC50) in experiment [2] of 2470 nM.

For `CC(=O)n1nc(Cc2ccccc2)nc1-c1ccccc1`, the Emax stood at 68% in experiment [3] and 50% in experiment [4]. The figures for the EC50 in experiment [1] and in experiment [2] were 1420 nM and 701 nM, respectively. Further, in the experiment listed under Homo sapiens, the Ratio EC50 was 0.49.

`COc1cccc(-c2n[nH]c(-c3ccccc3)n2)c1`: the Emax in experiment [3] turned out to be 72%; in experiment [4], 60%. In addition, the EC50 in experiment [1] was 68 nM; in experiment [2], 108 nM. Moreover, the Ratio EC50 in the experiment filed under Homo sapiens stood at 1.59.

For `c1ccc(Cn2nc(-c3ccccc3)nc2-c2ccccc2)cc1`, the Emax result in experiment [3] was “inactive”. The Emax in experiment [4] came out at 58%. A half-maximal response in experiment [2] (EC50) required 2180 nM.

In the case of `COc1cccc(-c2nc(-c3ccccc3)n(S(=O)(=O)c3ccc(C)cc3)n2)c1`, the Emax entry in experiment [3] and in experiment [4] was “inactive” in each case.

In the case of `Clc1ccc(-c2nc(-c3ccccc3)n(Cc3ccccc3)n2)cc1`, the results for the Emax in experiment [3] and in experiment [4] were 61% and 53%, respectively. In addition, the EC50 in experiment [1] worked out at 6710 nM; in experiment [2], 2130 nM. Moreover, the Ratio EC50 in the experiment filed under Homo sapiens was 0.32.

Take `CCn1nc(-c2ccc(Br)cc2)nc1-c1ccccc1`: the Emax in experiment [3] came out at 71%; in experiment [4] it was 45%. Also, the half-maximal effective concentration (EC50) was 5650 nM in experiment [1] and 2240 nM in experiment [2]. Also, the Ratio EC50 in the experiment filed under Homo sapiens was 0.4.

Consider `COc1cccc(-c2nc(-c3ccccc3)n(Cc3ccccc3)n2)c1`, for which the figures for the Emax in experiment [3] and in experiment [4] were 69% and 62%, respectively. In addition, the figures for the half-maximal effective concentration (EC50) in experiment [1] and in experiment [2] were 2360 nM and 903 nM, respectively. Also, the Ratio EC50 in the experiment filed under Homo sapiens was determined as 0.38.

For the compound `Brc1ccccc1-c1n[nH]c(-c2ccccc2)n1`, the figures for the Emax in experiment [3] and in experiment [4] were 67% and 52%, respectively. The results for the EC50 in experiment [1] and in experiment [2] were 493 nM and 390 nM, respectively. The Ratio EC50 in the experiment filed under Homo sapiens came to 0.79.

Consider `Brc1ccc(-c2nc(-c3ccccc3)n(Cc3ccccc3)n2)cc1`, for which the Emax in experiment [3] amounted to 69%; in experiment [4], 78%. Besides, the EC50 in experiment [1] worked out at 712 nM; in experiment [2], 5030 nM. In the experiment filed under Homo sapiens, the Ratio EC50 came out at 7.06.

Turning to `c1ccc(-c2n[nH]c(-c3ccccc3)n2)cc1`, the EC50 turned out to be 1010 nM in experiment [1] and 142 nM in experiment [2].

`CC(=O)n1nc(-c2ccc(Br)cc2)nc1-c1ccccc1`: the EC50 is 231 nM in experiment [1] and 113 nM in experiment [2].

Take `CCCCn1nc(-c2ccc(Cl)cc2)nc1-c1ccccc1`: the Emax result in experiment [3] and in experiment [4] was “inactive” each time.

Turning to `CCn1nc(-c2ccc(Cl)cc2)nc1-c1ccccc1`, in experiment [3], the Emax entry is “inactive”. The maximal response (Emax) in experiment [4] is 60%. Also, it took 2290 nM to reach a half-maximal effect in experiment [2] (EC50).

In the case of `Cn1nc(-c2ccccc2)nc1-c1ccccc1`, the results for the maximum response (Emax) in experiment [3] and in experiment [4] were 71% and 64%, respectively. The EC50 in experiment [1] turned out to be 2640 nM; in experiment [2] it was 2470 nM. The Ratio EC50 in the experiment listed under Homo sapiens worked out at 0.94.

With `c1ccc(-c2nc(-c3ccccc3)n(C3CC3)n2)cc1`, the Emax entry in experiment [3] and in experiment [4] was “inactive” each time.

As for `c1ccc(-c2n[nH]c(-c3cccnc3)n2)cc1`, the Emax result in experiment [3] and in experiment [4] was “inactive” each time.

These data come from ChEMBL document CHEMBL4371087, “Development of novel liver X receptor modulators based on a 1,2,4-triazole scaffold” (Bioorg Med Chem Lett, 2019).
